In US6964957B2, “Fused pyrazole compounds, pharmaceutical compositions, and methods for modulating or inhibiting ERAB or HADH2 activity” (Agouron Pharmaceuticals, Inc., priority 2000, dated 2005):
pIC50: −log10 of the molar value.

Tests used:
[1] = target: T1, ERAB (L-3-hydroxyacyl-CoA dehydrogenase) (Homo sapiens, UniProt Q99714); test: ERAB enzyme assay (loss of NADH absorbance at 340 nm, acetoacetyl-CoA as substrate); format: biochemical; conditions: 2.5 nM enzyme preincubated with inhibitor 400 seconds at 30° C., pH 7.5, 36 uM NADH, 2% DMSO; started with acetoacetyl-CoA (38 uM)
T1 sequence (Q99714 1-261): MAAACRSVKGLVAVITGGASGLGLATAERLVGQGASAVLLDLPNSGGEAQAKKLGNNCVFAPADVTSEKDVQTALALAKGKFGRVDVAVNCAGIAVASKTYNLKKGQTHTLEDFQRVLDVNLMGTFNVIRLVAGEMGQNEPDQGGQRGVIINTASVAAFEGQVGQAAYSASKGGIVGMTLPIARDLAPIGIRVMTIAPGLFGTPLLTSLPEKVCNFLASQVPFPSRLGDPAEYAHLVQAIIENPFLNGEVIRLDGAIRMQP
Experimental: The activity of ERAB (L-3-hydroxyacyl-CoA dehydrogenase) in the reverse direction was determined by a modified version of a method previously described (Binstock et al., Methods Enzymol., 71, 403-411 (1981)). This method is based on the enzyme-catalyzed loss of NADH absorbance at 340 nm with a change in the millimolar extinction coefficient of 6.22 mM^−1 cm^−1. The IC50 value for compounds of the Formula I were determined spectrophotometrically by monitoring the […] with acetoacetyl-CoA as substrate and are reported in Table 1. Assay conditions were 25 mM MOPS, 250 mM NaCl, 2% DMSO, 2.5 mM TCEP, pH 7.5, 30° C. NADH and ERAB were included at 40 uM and 2.5 nM, respectively. Stock solutions of ERAB, prepared in assay buffer, were 1 uM and contained 100 uM NADH for enzyme stability. The assay was run as follows: Enzyme (2.5 nM) was preincubated with inhibitor (without acetoacetyl-CoA present) for 400 seconds at 30° C. in the presence of 36 uM NADH, 25 mM MOPS, pH 7.5, 250 mM NaCl, 2%(v/v) DMSO, and 2.5 mM TCEP. The reaction was initiated by addition of substrate (acetoacetyl-CoA) (38 uM). Reduction of NADH was monitored at 340λ. Initial rates were calculated over a time frame where less than 10% of substrates had been consumed in an uninhibited reaction. For Ki, app determination, inhibitors were added during the preincubation stage from DMSO stock solutions for a final and constant 2% DMSO concentration. Initial rates were calculated and fitted, using non-linear fitting techniques, to the Michaelis equation for enzyme inhibition. The IC50 value was determined by non-linear regression analysis using KaleidaGraph (obtained from Synergy Software, Reading, Pa.).

Compound `CCCCC1(O)CCN(C(=O)C(c2ccccc2)n2cnc3[nH]ncc3c2=S)CC1` (stereo not shown) [XVIn, 1-(4-Butyl-4-hydroxy-piperidin-1-yl)-2-phenyl-2-(4-thioxo-1,4-dihydro-pyrazolo[3,4-d]pyrimidin-5-yl)-ethanone] has a melting point of 98 to 102 °C.
In the case of `O=C(C(c1ccccc1)n1cnc2[nH]ncc2c1=S)N1CCC(O)(c2ccccn2)CC1` (stereo not shown) [XVIm, 1-(4-Hydroxy-3′,4′,5′,6′-tetrahydro-2H-[2,4]bipyridinyl-1′-yl]-2-phenyl-2-(4-thioxo-1,4-dihydro-pyrazolo[3,4-d]pyrimidin-5-yl)-ethanone], the melting point was 138 to 142 °C and the pIC50 [1] was 6.55.
`CON(C)C(=O)C(c1ccccc1)n1cnc2[nH]ncc2c1=S` (stereo not shown) [XVIb, N-Methoxy-N-methyl-2-phenyl-2-(4-thioxo-1,4-dihydro-1,4-dihydro-pyrazolo[3,4-d]pyrimidin-5-yl)-ethanone] gave a melting point of 82 to 86 °C and a pIC50 [1] of 5.82.
For `O=C(OC1CCCCC1)C(c1ccccc1)n1cnc2[nH]ncc2c1=O` (stereo not shown) [XIa, (4-Oxo-1,4-dihydro-pyrazolo[3,4-d]pyrimidin-5-yl)-phenyl-acetic acid cyclohexyl ester], the melting point was 176 to 180 °C and the pIC50 [1] was 4.52.
For `CN(C(=O)C(c1ccccc1)n1cnc2[nH]ncc2c1=S)c1ccccc1` (stereo not shown) [XXVe], the pIC50 [1] was 6.13.
Work on `CCCCC1(O)CCN(C(=O)C(c2ccccc2)n2cnc3[nH]ncc3c2=S)CC1` (stereo not shown) [XXVd] yielded a pIC50 [1] of 7.15.
`CCN(CC)C(=O)C(c1ccccc1)n1cnc2[nH]ncc2c1=S` (stereo not shown) [XVIr, N,N-Diethyl-2-phenyl-2-(4-thioxo-1,4-dihydro-pyrazolo[3,4-d]pyrimidin-5-yl)-acetamide] gave a melting point of 143 to 146 °C and a pIC50 [1] of 7.03.
With `O=C(C(c1ccccc1)n1cnc2[nH]ncc2c1=O)N1CCCCCC1` (stereo not shown) [L] the pIC50 [1] was 5.15.
In the case of `O=C(C(c1ccccc1)n1cnc2[nH]ncc2c1=S)N1CCN(c2ccccn2)CC1` (stereo not shown) [XVIi, 2-Phenyl-1-(4-pyridin-2-yl-piperazin-1-yl)-2-(4-thioxo-1,4-dihydro-pyrazolo[3,4-d]pyrimidin-5-yl)-ethanone], the melting point was 242 to 246 °C and the pIC50 [1] was 6.41.
For `O=C(OC1CCCCC1)C(c1ccccc1)n1cnc2[nH]ncc2c1=S` (stereo not shown) [XIIa, 2-Phenyl-(4-thioxo-1,4-dihydro-pyrazolo[3,4-d]pyrimidin-5-yl)-acetic acid cyclohexyl ester], the melting point was 170 to 173 °C and the pIC50 [1] was 5.92.
`CC(c1ccccc1)n1cnc2[nH]ncc2c1=O` (stereo not shown) [LVII, 5-(1-Phenyl-ethyl)-1,5-dihydro-pyrazolo[3,4-d]pyrimidine-4-one] showed a melting point of 210 to 214 °C and a pIC50 [1] of 3.31.
Work on `O=C(C(c1ccccc1)n1cnc2[nH]ncc2c1=S)N1CCCCCC1` (stereo not shown) [XVIa, 1-Azepan-1-yl-2-phenyl-2-(4-thioxo-1,4-dihydro-1,4-dihrdropyrazolo[3,4-d]pyrimidin-5-yl)-ethanone] yielded a pIC50 [1] of 7.01.
In the case of `O=C(C(c1cccc(O)c1)n1cnc2[nH]ncc2c1=S)N1CCCCCC1` (stereo not shown) [XXVc], the pIC50 [1] was 7.29.
Compound `O=C(C(c1ccccc1)n1cnc2[nH]ncc2c1=S)N1CCC(O)(c2ccc(Br)cc2)CC1` (stereo not shown) [XVIg] has a melting point of 155 to 160 °C and a pIC50 [1] of 7.09.
With `O=C(O)C(c1ccccc1)n1cnc2[nH]ncc2c1=S` (stereo not shown) [XIVa, 2-Phenyl-(4-thioxo-1,4-dihydro-pyrazolo [3,4-d]pyrimidin-5-yl)acetic acid] the melting point was 95 to 98 °C and the pIC50 [1] was 3.29.
Compound `O=C(C(c1ccccc1)n1cnc2[nH]ncc2c1=S)N1CCCCCCC1` (stereo not shown) [XVIe, 1-Azocan-1-yl-2-phenyl-2-(4-thioxo-1,4-dihydro-1,4-dihydropyrazolo[3,4-d]pyrimidin-5-yl)-ethanone] has a melting point of 92 to 95 °C and a pIC50 [1] of 7.02.
`O=C(C(c1ccccc1)n1cnc2[nH]ncc2c1=S)N1CCN(c2ccccc2)CC1` (stereo not shown) [XVIj, 2-Phenyl-1-(4-phenyl-2-yl-piperazin-1-yl)-2-(4-thioxo-1,4-dihydro-pyrazolo[3,4-d]pyrimidin-5-yl)-ethanone] showed a melting point of 241 to 245 °C and a pIC50 [1] of 6.66.
`O=C(C(c1ccccc1)n1cnc2[nH]ncc2c1=S)N1CCC(O)(c2ccccc2)CC1` (stereo not shown) [XVIf, 1-(4-Hydroxy-4-phenyl-piperidin-1-yl)-2phenyl-2-(4-thioxo-1,4-dihydro-1,4-dihydro-pyrazolo[3,4-d]pyrimidin-5-yl)-ethanone] gave a melting point of 142 to 146 °C and a pIC50 [1] of 7.09.
With `O=C(C(c1ccccc1)n1cnc2[nH]ncc2c1=S)N1CCCCC1` (stereo not shown) [XXVa] the pIC50 [1] was 6.11.
Compound `C=CCOc1cccc(C(C(=O)N2CCC(O)(c3ccccc3)CC2)n2cnc3[nH]ncc3c2=S)c1` (stereo not shown) [XVIs, 2-(3-Allyoxy-phenyl)-1-(4-hydroxy-4-phenyl-piperidin-1-yl)-2-(4-thioxo-1,4-dihydro-pyrazolo[3,4-d]pyrimidin-5-yl)-ethanone] has a melting point of 116 to 120 °C and a pIC50 [1] of 6.39.
`CCN(C(=O)C(c1ccccc1)n1cnc2[nH]ncc2c1=S)C(C)C` (stereo not shown) [XVIq, N-Ethyl-N-isopropyl-2-phenyl-2-(4-thioxo-1,4-dihydro-pyrazolo[3,4d]pyrimidin-5-yl)-acetamide] showed a pIC50 [1] of 5.55.
Compound `CC(c1ccccc1)n1cnc2[nH]ncc2c1=S` (stereo not shown) [LVIIIa, 5-(1-Phenyl-ethyl)-1,5-dihydro-pyrazolo[3,4-d]pyrimidine-4-thione] has a melting point of 170 to 174 °C and a pIC50 [1] of 4.66.
In the case of `CC1(O)CCN(C(=O)C(c2ccccc2)n2cnc3[nH]ncc3c2=S)CC1` (stereo not shown) [XVIp, 1-(4-Methyl-4-hydroxy-piperidin-1-yl)-2-phenyl-2-(4-thioxo-1,4-dihydro-pyrazolo[3,4-d]pyrimidin-5-yl)-ethanone], the melting point was 140 to 144 °C and the pIC50 [1] was 6.68.
For `O=C(C(c1ccccc1)n1cnc2[nH]ncc2c1=S)N1CCC(c2ccccc2)CC1` (stereo not shown) [XXVb], the pIC50 [1] was 6.67.
`COc1ccc(N2CCN(C(=O)C(c3ccccc3)n3cnc4[nH]ncc4c3=S)CC2)cc1` (stereo not shown) [XVIk, 1-[4-(4-Methoxy-phenyl)-piperazin-1-yl]-2-phenyl-2-(4-thioxo-1,4-dihydro-pyrazolo[3,4-d]pyrimidin-5-yl)-ethanone] showed a melting point of 114 to 118 °C and a pIC50 [1] of 6.52.
For `CC(=O)C1(c2ccccc2)CCN(C(=O)C(c2ccccc2)n2cnc3[nH]ncc3c2=S)CC1` (stereo not shown) [XVIh, 1-(4-Acetyl-4-phenyl-piperidin-1-yl)-2-phenyl-2-(4-thioxo-1,4-dihydro-pyrazolo[3,4-d]pyrimidin-5-yl)-ethanone], the pIC50 [1] was 6.12.
`C=CCOc1cccc(C(C(=O)OC2CCCCC2)n2cnc3[nH]ncc3c2=S)c1` (stereo not shown) [XXIII] gave a pIC50 [1] of 4.96.
`O=C(C(c1ccccc1)n1cnc2[nH]ncc2c1=S)N1CCCC(O)C1` (stereo not shown) [XVIc, 1-(3-Hydroxy-piperidin-1-yl)-2-phenyl-2-(4-thioxo-1,4-dihydro-1,4-dihydro-pyrazolo[3,4-d]pyrimidin-5-yl)-ethanone] showed a pIC50 [1] of 5.74.
`C=CCOc1cccc(C(C(=O)N2CCCCCC2)n2cnc3[nH]ncc3c2=S)c1` (stereo not shown) [XVIt, 2-(3-Allyoxy-phenyl)-1-azepan-1-yl-2-(4-thioxo-1,4-dihydro-pyrazolo[3,4-d]pyrimidin-5-yl)-ethanone] gave a melting point of 75 to 80 °C and a pIC50 [1] of 6.46.
